Here are results for eight molecules from patent US20250296963A1, “PEPTIDE HAVING ANTIMICROBIAL ACTIVITY” (priority 2022, published 2025).

Format in all cases: cell-based
Assay [1] concerns Listeria monocytogenes. Description: Cow milk assay, MIC against Listeria monocytogenes. The settings on record: control, milk-free (and reference drug), read-out: Minimal inhibitory concentration. The protocol:
In vitro experiments were conducted to test the behavior of the peptides as disclosed herein in 3.5% fat cow milk, against Listeria monocytogenes. The peptide according to the SEQ ID N° 1 was adjusted to a concentration of 1 mg/ml and mixed with cow milk in equal parts. This mixture was incubated overnight at 37° C. To remove solid parts of the milk, the mixture was centrifuged and the obtained supernatant was used for MICs.

Assay [2] deals with Listeria monocytogenes. Kind of assay: microbe, parasite or virus in culture. The protocol:
(§1) The antimicrobial potential of the peptides described herein was compared with the activity of two other AMPs, TcAMP1 and TcAMP2 as discussed in WO1998027805, and antibiotics or fungicides. Comparative MIC assays were carried out against several bacterial and fungal species (Table 1).
(§2) Peptides according to SEQ ID N° 1, SEQ ID N° 2, SEQ ID N° 4, SEQ ID N° 6, and SEQ ID N° 7 were serially diluted in order to create a concentration sequence ranging from 0.39 μg/ml to […].
(§3) Pantoea, Staphylococcus, and Listeria were cultured in Trypticase Soy Broth (TSY) medium consisting of 1.7% casein peptone, 0.3% soy peptone, 0.25% glucose, 0.5% NaCl, 0.25% K2HPO4 and optionally 1.5% agar. Candida cells were cultured in Yeast Extract Peptone Dextrose (YPD) broth medium consisting of 1% yeast extract, 2% peptone, 2% glucose, and optionally 2% agar. Ceratocystis, Botrytis, Leptosphaeria, Mycosphaerella, Sclerotinia, and Verticillium were cultured in Potato Dextrose Agar (PDA) medium consisting of 2.4% Difco pre-mix broth and optionally 1.5% agar.
(§4) For the MIC assay bacteria and fungi were grown on agar plates with their respective media. Pre-cultures were prepared by inoculating either single bacterial colonies or small pieces of fungi in 5 ml of the respective liquid medium. The optical density (OD) at 600 nm was measured after one to five days and adjusted to an OD600 of 1. This cell suspension was used to prepare 1:500 dilutions, corresponding to approximately 2×10^6 microbial cells per ml.
(§5) To evaluate MICs, 96-well plates were prepared with the test antimicrobial peptides. Each well contained 100 μl microbial cell culture, 90 μl culture medium, and 10 μl peptide or control at the corresponding dilution. The plates were incubated overnight (ON) at the optimal growth temperature for each tested organism (Table 1). Results were visually evaluated and MICs determined based on growth or no-growth.
(§6) MIC assays were conducted in at least two independent replicates and with different peptide starting concentrations.

The test system of assay [3] is Staphylococcus aureus MRSA. Description: microbe, parasite or virus in culture. The protocol: as §1, §2, §3, §4, §5, §6
The test system of the next assay is Pantoea agglomerans. The protocol:
as §1, §2, §3, §4, §5, §6

The next assay deals with E. coli. Kind of assay: MIC assay, E. coli. The protocol: as §1, §2, §4, §5, §6
A further assay concerns Botrytis cinerea. Kind of assay: microbe, parasite or virus in culture. The protocol:
as §1, §2, §3, §4, §5, §6

The test system of another assay is Candida albicans. Description: microbe, parasite or virus in culture. On the procedure: as §1, §2, §3, §4, §5, §6
Another assay concerns Leptosphaeria maculans. Description: microbe, parasite or virus in culture. The protocol:
as §1, §2, §3, §4, §5, §6

The next assay deals with Mycosphaerella pinodes. Kind of assay: microbe, parasite or virus in culture. On the procedure:
as §1, §2, §3, §4, §5, §6

For another assay, the system named is Sclerotinia sclerotiorum. Description: microbe, parasite or virus in culture. On the procedure: as §1, §2, §3, §4, §5, §6
Another assay has as its system Verticillium dahliae. Description: microbe, parasite or virus in culture. The protocol: as §1, §2, §3, §4, §5, §6
A further assay concerns Ceratosystis paradoxa. Kind of assay: organism not typed. The protocol:
as §1, §2, §3, §4, §5, §6

The test system of the next assay is C. albicans. Description: Peptide stability in bodily fluids (sheep blood, urine), MIC against C. albicans. The conditions noted are these: Candida albicans, read-out: Minimal inhibitory concentration. The protocol:
In vitro experiments were conducted to test the behavior of the peptides as disclosed herein in blood, against C. albicans. C. albicans isolates from human blood were used (DSMZ 6569). The peptide according to the SEQ ID N° 1 was adjusted to a concentration of 1 mg/ml and mixed with sheep blood in equal parts. This mixture was incubated overnight at 30° C. To remove solid parts of the blood, the mixture was centrifuged and the obtained plasma supernatant was used for MICs.
In vitro experiments were conducted to test the behavior of the peptides as disclosed herein in urine, against C. albicans. The peptide according to the SEQ ID N° 1 was adjusted to a concentration of 1 mg/ml and mixed with synthetic urine or human urine in equal parts. These mixtures were incubated overnight at 30° C. To remove solid parts of the urine, the mixture was centrifuged and the obtained supernatant was used for MICs.

The test system of assay [4] is several bacterial and fungal species. Kind of assay: Comparative MIC assays, all tested organisms. The conditions noted are these: bacterial species of Table 3, all tested species. The protocol: as §1, §2, §3
For the MIC assay bacteria and fungi were grown on agar plates with their respective media. […] The optical density (OD) at 600 nm was measured after one to five days and adjusted to an OD600 of 1. […]
To evaluate MICs, 96-well plates were prepared with the test antimicrobial peptides. […] Results were visually evaluated and MICs determined based on growth or no-growth. […]

Where [5] appears, read: Listeria monocytogenes DSM 102976, TSY, 37° C., overnight.
The mark [6] stands for this setting: Staphylococcus aureus MRSA DSM 11729, TSY, 37° C., overnight.
Where [7] appears, read: Pantoea agglomerans JUB-CC-3253, TSY, 37° C., overnight.

≈ marks a conversion by molar mass, not a printed value. Where two headings read alike, the source gives them in different places. Where no end group is shown, it is not given here.

`CN(C)[C@@H]1C(O)=C(C(N)=O)C(=O)[C@@]2(O)C(O)=C3C(=O)c4c(O)cccc4[C@@](C)(O)[C@H]3C[C@@H]12` [Tetracycline, tetracycline]: the MIC in the assay on Listeria monocytogenes [1] was found to be 1.6 µg/mL (≈ 3.6 µM).
With Gentamycin, the Minimal inhibitory concentration in the assay on Listeria monocytogenes [2] (setting [5]) is 0.4 µg/mL; in assay [3] (setting [6]), 0.8 µg/mL; in the assay on Pantoea agglomerans (setting [7]), 1.56 µg/mL; with E. coli, 1 µg/mL.
Turning to “YERDPRQQYEQCQRRCESEATEEREQEQCEQRCEREYKEQQRQQEEE (cysteines drawn unpaired) [SEQ ID No 6]”, the Minimal inhibitory concentration came to 14.5 µg/mL in the assay with Botrytis cinerea; 13.1 µg/mL in the assay with Candida albicans; 37.9 µg/mL in the assay with Leptosphaeria maculans; 3.25 µg/mL in the assay with Listeria monocytogenes [2]; 13.12 µg/mL in the assay on Mycosphaerella pinodes; 27.2 µg/mL in the assay with Sclerotinia sclerotiorum. Moreover, the Minimal inhibitory concentration in assay [3] was 13 µg/mL; in the assay on Verticillium dahliae, 14.5 µg/mL; in the assay with Ceratosystis paradoxa, 4.8 µg/mL; with Pantoea agglomerans it was 7.9 µg/mL.
For “LQRQYQQCQGRCQEQQQGQREQQQCQRKCWEQYKEQERGEHENYHNHKKNRSEEEEGQQR (cysteines drawn unpaired) [SEQ ID No 7]”, the Minimal inhibitory concentration in the assay on Botrytis cinerea was found to be 12.75 µg/mL; with Candida albicans, 12.75 µg/mL; with Leptosphaeria maculans, 9.4 µg/mL; in the assay on Listeria monocytogenes [2] it was 13.6 µg/mL; with Mycosphaerella pinodes it was 10.68 µg/mL; in the assay with Sclerotinia sclerotiorum, 23.5 µg/mL. Moreover, the Minimal inhibitory concentration is 13.6 µg/mL in assay [3], 12.7 µg/mL in the assay on Verticillium dahliae, 4.7 µg/mL in the assay on Ceratosystis paradoxa and 9.45 µg/mL in the assay with Pantoea agglomerans.
Take `Clc1ccccc1C(c1ccccc1)(c1ccccc1)n1ccnc1` [Clotrimazole]: the MIC in the assay with Botrytis cinerea (DSMZ877, Botrytis cinerea DSMZ 877, PDA, 24° C., overnight, read-out: Minimal inhibitory concentration) is 6.25 µg/mL (≈ 18.1 µM); in the assay on Candida albicans (DSM1386, Candida albicans DSM 1386, YPD, 30° C., overnight, read-out: Minimal inhibitory concentration) it was 3.1 µg/mL (≈ 8.99 µM); in the assay on Leptosphaeria maculans (Plenodomus lingam, Leptosphaeria maculans SF 70, PDA, 18° C., overnight, read-out: Minimal inhibitory concentration), 0.4 µg/mL (≈ 1.16 µM); in the assay on Mycosphaerella pinodes (Didymella pinodes, DSMZ62763, Mycosphaerella pinodes DSMZ 62763, PDA, 30° C., overnight, read-out: Minimal inhibitory concentration), 3.1 µg/mL (≈ 8.99 µM); in the assay with Sclerotinia sclerotiorum (Sclerotinia sclerotiorum SF 79, PDA, 18° C., overnight, read-out: Minimal inhibitory concentration), 25 µg/mL (≈ 72.5 µM); in the assay with Verticillium dahliae (Verticillium dahliae SF 76, PDA, 28° C., overnight, read-out: Minimal inhibitory concentration) it was 1.56 µg/mL (≈ 4.52 µM). The MIC in the assay with Ceratosystis paradoxa (Ceratosystis paradoxa DSMZ 63054, PDA, 18° C., overnight, read-out: Minimal inhibitory concentration) is 0.4 µg/mL (≈ 1.16 µM).
Take `CC[C@H](C)C[C@H](C)CCCCCCCCC(=O)N[C@H]1C[C@@H](O)[C@@H](NCCN)NC(=O)[C@@H]2[C@@H](O)CCN2C(=O)[C@H]([C@H](O)CCN)NC(=O)[C@H]([C@H](O)[C@@H](O)c2ccc(O)cc2)NC(=O)[C@@H]2C[C@@H](O)CN2C(=O)[C@H]([C@@H](C)O)NC1=O` [Caspofungin, caspofungin]: the MIC in the assay on C. albicans came to 0.5 µg/mL (≈ 0.457 µM).
Regarding `[H]/N=C(/N)N[C@H]1[C@H](O)[C@@H](O)[C@H](O[C@@H]2O[C@@H](C)[C@](O)(C=O)[C@H]2O[C@@H]2O[C@@H](CO)[C@H](O)[C@@H](O)[C@@H]2NC)[C@@H](N/C(N)=N\[H])[C@@H]1O` [Streptomycin], the MIC in the assay with Listeria monocytogenes [2] (DSM102976, Listeria monocytogenes DSM 102976, TSY, 37° C., overnight, read-out: Minimal inhibitory concentration) is 7.8 µg/mL (≈ 13.4 µM); in assay [3] (DSM 11729 / MRSA, Staphylococcus aureus MRSA DSM 11729, TSY, 37° C., overnight, read-out: Minimal inhibitory concentration), over 125 µg/mL.

B1: SEQ ID No 2: Cocoa vicilin-derived antimicrobial peptide of the invention, recombinant or synthetic, mass of 15.3 kDa (peptide)
chain: YGRKQYERDPRQQYEQCQRRCESEATEEREQEQCEQRCEREYKEQQRQQEEELQRQYQQCQGRCQEQQQGQREQQQCQRKCWEQYKEQERGEHENYHNHK
modifications: peptide according to an embodiment of the invention
notes: Cocoa vicilin-derived antimicrobial peptide of the invention, recombinant or synthetic, mass of 15.3 kDa
For B1, the Minimal inhibitory concentration in the assay on Botrytis cinerea (Botrytis cinerea DSMZ 877, PDA, 24° C., overnight) was 6.25 µg/mL; with Candida albicans (Candida albicans DSM 1386, YPD, 30° C., overnight) it was 3.1 µg/mL; with Leptosphaeria maculans (Leptosphaeria maculans SF 70, PDA, 18° C., overnight), 6.25 µg/mL; with Listeria monocytogenes [2] (setting [5]), 7.1 µg/mL; in the assay on Mycosphaerella pinodes (Mycosphaerella pinodes DSMZ 62763, PDA, 30° C., overnight), 4.5 µg/mL; in the assay with Sclerotinia sclerotiorum (Sclerotinia sclerotiorum SF 79, PDA, 18° C., overnight), 19.3 µg/mL. The Minimal inhibitory concentration in assay [3] (setting [6]) was 7.1 µg/mL; in the assay with Verticillium dahliae (Verticillium dahliae SF 76, PDA, 28° C., overnight), 3.1 µg/mL; in the assay with Ceratosystis paradoxa (Ceratosystis paradoxa DSMZ 63054, PDA, 18° C., overnight) it was 6.25 µg/mL; in the assay on Pantoea agglomerans (setting [7]), 1.9 µg/mL; in the assay with E. coli, 6.2 µg/mL. Further, the “efficiency compared with the prior art peptides” value in assay [4] is listed as “more efficient than the prior art peptides”.
